Values of other authors as cited in patent US20170020838A1, “TREATMENT FOR RESPIRATORY DISEASE” (MUCOKINETICA LIMITED, priority 2014, published 2017).

System: airway ENaC
Conditions: Bridges et al. 2001; cited from earlier work

Substance: aprotinin
- effect on airway ENaC activity: Down regulation
